Measured values reported in PubChem BioAssay AID1963865 (Molecular Pharmacology Branch, DTP, NCI, 2024).

System: KRAS PDC multicell spheroid viability
Assay: Anticancer human tumor 825966-067-R-J1-PDC patient-derived colon carcinoma cell line growth inhibition [KRAS2]
Conditions: for IC50: curve of first compound; for viability, T/C: stronger effect = lower value
In short: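 Combination screen of spheroid viability in tumor-cell co-cultures with endothelial (HUVEC) and mesenchymal stem cell stroma. Each agent was tested in half-log dilutions, topping at clinical Cmax or at 10 microM without a known Cmax.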

[1] = second compound 0.1 µM, first compound 0.0316 µM
[2] = second compound 0.1 µM, first compound 0.1 µM
[3] = second compound 0.316 µM, first compound 0.0316 µM
[4] = second compound 0.316 µM, first compound 0.1 µM
[5] = second compound 1 µM, first compound 0.0316 µM
[6] = second compound 1 µM, first compound 0.1 µM
[7] = second compound 3.16 µM, first compound 0.0316 µM
[8] = second compound 3.16 µM, first compound 0.1 µM
[9] = second compound 10 µM, first compound 0.0316 µM
[10] = second compound 10 µM, first compound 0.1 µM
[11] = second compound 0.1 µM, first compound 0.316 µM
[12] = second compound 0.1 µM, first compound 1 µM
[13] = second compound 0.1 µM, first compound 3.16 µM
[14] = second compound 0.1 µM, first compound 10 µM
[15] = second compound 0.316 µM, first compound 0.316 µM
[16] = second compound 0.316 µM, first compound 1 µM
[17] = second compound 0.316 µM, first compound 3.16 µM
[18] = second compound 0.316 µM, first compound 10 µM
[19] = second compound 1 µM, first compound 0.316 µM
[20] = second compound 1 µM, first compound 1 µM
[21] = second compound 1 µM, first compound 3.16 µM
[22] = second compound 1 µM, first compound 10 µM
[23] = second compound 3.16 µM, first compound 0.316 µM
[24] = second compound 3.16 µM, first compound 1 µM
[25] = second compound 3.16 µM, first compound 3.16 µM
[26] = second compound 3.16 µM, first compound 10 µM
[27] = second compound 10 µM, first compound 0.316 µM
[28] = second compound 10 µM, first compound 1 µM
[29] = second compound 10 µM, first compound 3.16 µM
[30] = second compound 10 µM, first compound 10 µM
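Also: spheroids exposed to compounds for 7 days.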
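For viability, T/C in this document: 100% = DMSO vehicle control viability.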

Row | Structure (SMILES) | IC50 (second compound 0.1 µM) [nM] | IC50 (second compound 0.316 µM) [nM] | IC50 (second compound 1 µM) [nM] | IC50 (second compound 3.16 µM) [nM] | IC50 (second compound 10 µM) [nM] | viability, T/C [1] [%] | viability, T/C [2] [%] | viability, T/C [3] [%] | viability, T/C [4] [%] | viability, T/C [5] [%] | viability, T/C [6] [%] | viability, T/C [7] [%] | viability, T/C [8] [%] | viability, T/C [9] [%] | viability, T/C [10] [%] | viability, T/C [11] [%] | viability, T/C [12] [%] | viability, T/C [13] [%] | viability, T/C [14] [%] | viability, T/C [15] [%] | also measured
1 | CN(C)C/C=C/C(=O)Nc1cc2c(Nc3ccc(F)c(Cl)c3)ncnc2cc1O[C@H]1CCOC1 + CNCc1ccccc1-c1csc(C(C)Nc2nc(C)nc3cc(OC)c(OC)cc23)c1 | > 100 | > 100 | > 100 | > 100 | < 0.316 | 88.8 | 106 | 99.3 | 92.4 | 108 | 106 | 130 | 104 | 1.87 | 2.49 |  |  |  |  |  | viability, T/C (second compound 0.1 µM, first compound 0.000316 µM): 103%; viability, T/C (second compound 0.1 µM, first compound 0.001 µM): 92.3%; viability, T/C (second compound 0.1 µM, first compound 0.00316 µM): 98%; viability, T/C (second compound 0.1 µM, first compound 0.01 µM): 113%; viability, T/C (second compound 0.316 µM, first compound 0.000316 µM): 123%; viability, T/C (second compound 0.316 µM, first compound 0.001 µM): 108%; viability, T/C (second compound 0.316 µM, first compound 0.00316 µM): 107%; viability, T/C (second compound 0.316 µM, first compound 0.01 µM): 105%; viability, T/C (second compound 1 µM, first compound 0.000316 µM): 110%; viability, T/C (second compound 1 µM, first compound 0.001 µM): 101%; viability, T/C (second compound 1 µM, first compound 0.00316 µM): 89.5%; viability, T/C (second compound 1 µM, first compound 0.01 µM): 107%; viability, T/C (second compound 3.16 µM, first compound 0.000316 µM): 128%; viability, T/C (second compound 3.16 µM, first compound 0.001 µM): 113%; viability, T/C (second compound 3.16 µM, first compound 0.00316 µM): 107%; viability, T/C (second compound 3.16 µM, first compound 0.01 µM): 1.05%; viability, T/C (second compound 10 µM, first compound 0.000316 µM): 1.54%; viability, T/C (second compound 10 µM, first compound 0.001 µM): 0.37%; viability, T/C (second compound 10 µM, first compound 0.00316 µM): 0.43%; viability, T/C (second compound 10 µM, first compound 0.01 µM): 1.89%
2 | COC(=O)c1ccc2c(C(=Nc3ccc(N(C)C(=O)CN4CCN(C)CC4)cc3)c3ccccc3)c(O)[nH]c2c1 + CNCc1ccccc1-c1csc(C(C)Nc2nc(C)nc3cc(OC)c(OC)cc23)c1 | 567 | 1180 | 910 | < 31.6 | < 31.6 | 84.2 | 82.4 | 62 | 86.3 | 75.7 | 78.2 | 23 | 38.6 | 2.62 | 0.25 | 77.7 | 23.2 | 0.18 | 0.19 | 97.5 | viability, T/C [16]: 58.4%; viability, T/C [17]: 0.13%; viability, T/C [18]: 0.2%; viability, T/C [19]: 87%; viability, T/C [20]: 47.3%; viability, T/C [21]: 0.9%; viability, T/C [22]: 0.21%; viability, T/C [23]: 0.57%; viability, T/C [24]: 0.22%; viability, T/C [25]: 0.13%; viability, T/C [26]: 0.21%; viability, T/C [27]: 1.09%; viability, T/C [28]: 0.18%; viability, T/C [29]: 0.17%; viability, T/C [30]: 0.26%
3 | O=C(c1cc(Cc2n[nH]c(=O)c3ccccc23)ccc1F)N1CCN(C(=O)C2CC2)CC1 + CNCc1ccccc1-c1csc(C(C)Nc2nc(C)nc3cc(OC)c(OC)cc23)c1 | > 10000 | > 10000 | > 10000 | < 31.6 | < 31.6 | 102 | 90.9 | 90.8 | 87.2 | 112 | 90.3 | 9.5 | 28.8 | 0.23 | 0.27 | 81.1 | 88.5 | 78.6 | 61.2 | 92.6 | viability, T/C [16]: 87.7%; viability, T/C [17]: 77.9%; viability, T/C [18]: 97.6%; viability, T/C [19]: 87.8%; viability, T/C [20]: 91.1%; viability, T/C [21]: 104%; viability, T/C [22]: 111%; viability, T/C [23]: 40.8%; viability, T/C [24]: 15.5%; viability, T/C [25]: 1.24%; viability, T/C [26]: 2.36%; viability, T/C [27]: 0.26%; viability, T/C [28]: 0.23%; viability, T/C [29]: 0.19%; viability, T/C [30]: 0.27%
